Assay results from patent publication US12240920B2, “Cyclic peptidomimetic for the treatment of neurological disorders” (Brown University, priority 2019, dated 2025).

What was measured:
in vivo = settings: plasma
[1] = test system: repeated corticosterone-injected rats; settings: CORT administration model; cited from earlier work

Row | SMILES | half-life (in vivo) | depressive-like behavior [1]
1 | CC(C)[C@H](NC(=O)[C@@H]1CCC(=O)NCCC(=O)NCCCC[C@H](NC(=O)[C@H](CCCCN)NC(=O)[C@H](Cc2ccc(O)cc2)NC(=O)[C@H](CC(N)=O)NC(=O)[C@H](CCCCN)NC(=O)[C@@H](N)CSSC[C@@H](N)C(=O)N[C@@H](CCCNC(=N)N)C(=O)N[C@@H](CCCNC(=N)N)C(=O)N[C@@H](CCCNC(=N)N)C(=O)N[C@@H](CCCNC(=N)N)C(=O)N[C@@H](CCCNC(=N)N)C(=O)N[C@@H](CCCNC(=N)N)C(=O)N[C@@H](CCCNC(=N)N)C(N)=O)C(=O)N[C@@H]([C@@H](C)O)C(=O)N1)C(=O)O [CN2097, R7Cs-sCYK[KTE(β-Ala)]V] | ~1 h | 
2 | CNC1(c2ccccc2Cl)CCCCC1=O (centres unmarked) [ketamine] |  | significantly reduced depressive-like behavior
